Laboratory results as given in patent US20240207427A1, “SELECTIVE DRUG RELEASE FROM INTERNALIZED CONJUGATES OF BIOLOGICALLY ACTIVE COMPOUNDS” (priority 2021, published 2024).
pIC50: −log10 of the molar value. Read-outs that look alike come from different tables or passages of the source.

What was measured:
Format in all cases: cell-based
[1] = test system: acute myeloid leukemia cells (MOLM-13); assay: In vitro potency (CellTiter-Glo, 96 h), MOLM-13; conditions: Homo sapiens, MOLM-13, 96 h
Procedure: (§1) In vitro potency was assessed on multiple cancer cell lines. All cell lines were authenticated by STR profiling at IDEXX Bioresearch and cultured for no more than 2 months after resuscitation. Cells cultured in log-phase growth were seeded for 24 hours in 96-well plates containing […] RPMI 1640 supplemented with 20% FBS. Serial dilutions of antibody-drug conjugates in cell culture media were prepared at 4× working concentrations, and 50 μL of each dilution was added to the 96-well plates. Following addition of test articles, cells were incubated with test articles for 4 days at 37 0° C. After 96 hours, growth inhibition was assessed by CellTiterGlo® (Promega, Madison, WI) and luminescence was measured on a plate reader.
(§2) In Table 7, IC50 values for ADCs are given in ng/mL. Cell viability was determined by CellTiter-Glo staining after 96 h exposure to ADC. ND=Not Determined. Ag2 is an antibody targeting a ubiquitous and readily internalizable antigen. The cancer cell lines tested are renal carcinoma cells (786-0), melanoma cells (A2058), pancreatic cancer cells (BxPC3), non-small-cell lung cancer cells (Calu1), anaplastic large cell lymphoma cells (DEL, DELBVR, Karpas299), Hodgkin's lymphoma cells (L540cy), (Ls174T), breast cancer cells (MDA-MB-231), acute myeloid leukemia cells (MOLM-13), and B-lymphocyte cancer cells (SU-DHL4).
as §1, with “FBS.” for “FBS. Serial dilutions of antibody-drug conjugates in cell culture media were prepared at 4× working concentrations, and 50 μL of each dilution was added to the 96-well plates.”
(§3) Cell viability was determined by CellTiter-Glo staining after 96 h exposure to the compound. ND=Not Determined. The cancer cell lines tested are renal carcinoma cells (786-0), melanoma cells (A2058), pancreatic cancer cells (BxPC3), non-small-cell lung cancer cells (Calu1), anaplastic large cell lymphoma cells (DEL, DELBVR, Karpas299), Hodgkin's lymphoma cells (L540cy), (Ls 174T), breast cancer cells (MDA-MB-231), acute myeloid leukemia cells (MOLM-13), B-lymphocyte cancer cells (SU-DHL4), multiple myeloma cells (MM.1R), (U266), and melanoma cells (SK-MEL-5).
as §1, with “37°” for “37 0°”
(§4) In the following Tables IC50 values for ADCs and CPT free drugs are given in ng/mL and nmol/L concentrations. Cell viability was determined by CellTiter-Glo staining after 96 h exposure to ADC or CPT free drug.
(§5) Cell viability was determined by CellTiter-Glo staining after 96 h exposure to ADC. ND=Not Determined.

[2] = test system: B-lymphocyte cancer cells (SU-DHL4); assay: In vitro potency (CellTiter-Glo, 96 h), SU-DHL-4; conditions: Homo sapiens, SU-DHL-4, 96 h
Procedure: as §1, §2
as §1, with “FBS.” for “FBS. Serial dilutions of antibody-drug conjugates in cell culture media were prepared at 4× working concentrations, and 50 μL of each dilution was added to the 96-well plates.”
as §3
as §1, with “37°” for “37 0°”
as §4, §5

[3] = test system: renal carcinoma cells (786-O); assay: In vitro potency (CellTiter-Glo, 96 h), 786-O; conditions: Homo sapiens, 786-0, 96 h
Procedure: as §1, §2
as §1, with “FBS.” for “FBS. Serial dilutions of antibody-drug conjugates in cell culture media were prepared at 4× working concentrations, and 50 μL of each dilution was added to the 96-well plates.”
as §3
as §1, with “37°” for “37 0°”
as §4, §5

[4] = test system: anaplastic large cell lymphoma cells (Karpas299); assay: In vitro potency (CellTiter-Glo, 96 h), Karpas299; conditions: Homo sapiens, KARPAS-299, 96 h
Procedure: as §1, §2
as §1, with “FBS.” for “FBS. Serial dilutions of antibody-drug conjugates in cell culture media were prepared at 4× working concentrations, and 50 μL of each dilution was added to the 96-well plates.”
as §3
as §1, with “37°” for “37 0°”
as §4, §5

[5] = test system: Hodgkin's lymphoma cells (L540cy); assay: In vitro potency (CellTiter-Glo, 96 h), L540cy
Procedure: as §1, §2
as §1, with “FBS.” for “FBS. Serial dilutions of antibody-drug conjugates in cell culture media were prepared at 4× working concentrations, and 50 μL of each dilution was added to the 96-well plates.”
as §3
as §1, with “37°” for “37 0°”
as §4, §5

[6] = test system: anaplastic large cell lymphoma cells (DEL); assay: In vitro potency (CellTiter-Glo, 96 h), DEL
Procedure: as §1, §2
as §1, with “FBS.” for “FBS. Serial dilutions of antibody-drug conjugates in cell culture media were prepared at 4× working concentrations, and 50 μL of each dilution was added to the 96-well plates.”
as §3
as §1, with “37°” for “37 0°”
as §4, §5

[7] = test system: anaplastic large cell lymphoma cells (DELBVR); assay: In vitro potency (CellTiter-Glo, 96 h), DELBVR
Procedure: as §1, §2
as §1, with “FBS.” for “FBS. Serial dilutions of antibody-drug conjugates in cell culture media were prepared at 4× working concentrations, and 50 μL of each dilution was added to the 96-well plates.”
as §3
as §1, with “37°” for “37 0°”
as §4, §5

[8] = test system: pancreatic cancer cells (BxPC3); assay: In vitro potency (CellTiter-Glo, 96 h), BxPC3; conditions: Homo sapiens, BXPC-3, 96 h
Procedure: as §1, §2
as §1, with “FBS.” for “FBS. Serial dilutions of antibody-drug conjugates in cell culture media were prepared at 4× working concentrations, and 50 μL of each dilution was added to the 96-well plates.”
as §3
as §1, with “37°” for “37 0°”
as §4, §5

melanoma cells (A2058) = assay: In vitro potency (CellTiter-Glo, 96 h), A2058; conditions: Homo sapiens, A2058, 96 h, read-out: A2058 IC50
Procedure: as §1, §2
as §1, with “FBS.” for “FBS. Serial dilutions of antibody-drug conjugates in cell culture media were prepared at 4× working concentrations, and 50 μL of each dilution was added to the 96-well plates.”
as §3
as §1, with “37°” for “37 0°”
as §4, §5

Ls174T cells = assay: In vitro potency (CellTiter-Glo, 96 h), Ls174T; conditions: Homo sapiens, LS174T, 96 h
Procedure: as §1, §2
as §1, with “FBS.” for “FBS. Serial dilutions of antibody-drug conjugates in cell culture media were prepared at 4× working concentrations, and 50 μL of each dilution was added to the 96-well plates.”
as §3
as §1, with “37°” for “37 0°”
as §4, §5

[9] = test system: breast cancer cells (MDA-MB-231); assay: In vitro potency (CellTiter-Glo, 96 h), MDA-MB-231; conditions: Homo sapiens, MDA-MB-231, 96 h
Procedure: as §1, §2
as §1, with “FBS.” for “FBS. Serial dilutions of antibody-drug conjugates in cell culture media were prepared at 4× working concentrations, and 50 μL of each dilution was added to the 96-well plates.”
as §3
as §1, with “37°” for “37 0°”
as §4, §5

[10] = camptothecin free drug, 96 h, read-out: MOLM-13 IC50
[11] = camptothecin free drug, 96 h, read-out: SU-DHL-4 IC50
[12] = camptothecin free drug, 96 h, read-out: 786-O IC50
[13] = camptothecin free drug, 96 h, read-out: Karpas299 IC50
[14] = camptothecin free drug, read-out: L540cy IC50
[15] = camptothecin free drug, read-out: DEL IC50
[16] = camptothecin free drug, read-out: DELBVR IC50
[17] = camptothecin free drug, 96 h, read-out: BxPC3 IC50
[18] = camptothecin free drug, read-out: Ls174T IC50
[19] = camptothecin free drug, 96 h, read-out: MDAMB231 IC50
[20] = read-out: MOLM-13 IC50, camptothecin free drug, 96 h
[21] = read-out: SU-DHL-4 IC50, camptothecin free drug, 96 h
[22] = read-out: 786-O IC50, camptothecin free drug, 96 h
[23] = read-out: Karpas299 IC50, camptothecin free drug, 96 h
[24] = read-out: L540cy IC50, camptothecin free drug, 96 h
[25] = read-out: DEL IC50, camptothecin free drug, 96 h
[26] = read-out: DELBVR IC50, camptothecin free drug, 96 h
[27] = read-out: BxPC3 IC50, camptothecin free drug, 96 h
[28] = read-out: Ls174T IC50, camptothecin free drug, 96 h
[29] = read-out: MDAMB231 IC50, camptothecin free drug, 96 h

Row | SMILES | pIC50 [1, 10] | pIC50 [2, 11] | pIC50 [3, 12] | pIC50 [4, 13] | pIC50 [5, 14] | pIC50 [6, 15] | pIC50 [7, 16] | pIC50 [8, 17] | pIC50 (melanoma cells (A2058); camptothecin free drug, 96 h) | pIC50 (Ls174T cells; [18]) | pIC50 [9, 19] | pIC50 [1, 20] | pIC50 [2, 21] | pIC50 [3, 22] | pIC50 [4, 23] | pIC50 [5, 24] | pIC50 [6, 25] | pIC50 [7, 26] | pIC50 [8, 27] | pIC50 (melanoma cells (A2058)) | also measured
1 | CC[C@@]1(O)C(=O)OCc2c1cc1n(c2=O)Cc2c-1nc1cc3c(cc1c2CNCCCN1CCN(C(=O)OC(C)(C)C)CC1)OCO3 [Compound 7m] | 6.34 | 7.13 | 6.86 | 6.77 | 7.10 | 7.26 | 7.27 | 6.76 | 7.24 | 6.65 | 6.15 |  |  |  |  |  |  |  |  |  | 
2 | CC[C@@]1(O)C(=O)OCc2c1cc1n(c2=O)Cc2c-1nc1cc3c(cc1c2CNCCCN(C)C)OCO3 [Compound 7t] |  |  |  |  |  |  |  |  |  |  |  | 6.49 | 7.01 | 6.82 | 6.78 | 7.15 | 7.24 | 7.26 | 6.77 | 7.19 | pIC50 (Ls174T cells; [28]): < 6.00; pIC50 [9, 29]: 6.00
3 | CC[C@@]1(O)C(=O)OCc2c1cc1n(c2=O)Cc2c-1nc1cc3c(cc1c2CNCCN1CCN(C(=O)OC(C)(C)C)CC1)OCO3 [Compound 7f] | < 6.00 | 7.08 | 6.89 | 6.79 | 7.18 | 7.28 | 7.28 | 6.81 | 7.39 | 7.16 | 6.11 |  |  |  |  |  |  |  |  |  | 
4 | CC[C@@]1(O)C(=O)OCc2c1cc1n(c2=O)Cc2c-1nc1cc3c(cc1c2CNCCCN)OCO3 [Compound 7v] |  |  |  |  |  |  |  |  |  |  |  | < 6.00 | 7.00 | 6.76 | 6.88 | 7.06 | 7.24 | 7.24 | 6.65 | 7.16 | pIC50 (Ls174T cells; [28]): 6.84; pIC50 [9, 29]: 6.00
5 | CC[C@@]1(O)C(=O)OCc2c1cc1n(c2=O)Cc2c-1nc1cc3c(cc1c2CN1CCN(CCNC(=O)OC(C)(C)C)CC1)OCO3 [Compound 7af] | 6.96 | 7.32 | 6.75 | 6.90 | 7.21 | 7.82 | 7.62 | 6.75 | 7.42 | 7.10 | 6.00 |  |  |  |  |  |  |  |  |  | 
